Source: US20230340027A1, “UBIQUITIN HIGH AFFINITY PEPTIDES, AND METHODS OF USING SAME, AND IDENTIFYING SAME” (TECHNION RESEARCH & DEVELOPMENT FOUNDATION LIMITED, priority 2020, published 2023)
Starred links: 1 amine or outer side, 2 acyl side, 3 side chain; linkers in the order of their positions; H or OH if unused. Positions of bridges follow the written chain, without caps; N, C: chain ends. Non-standard residues stand in square brackets, D forms with d. Residues, ends and D or L forms follow the SMILES beside them. Chains are numbered I, II in the order given. No end group written: not given here. *: point of attachment. Fluorescein(5-Mal) = O=C1OC2(c3ccc(O)cc3Oc3cc(O)ccc32)c2ccc(N3C(=O)CC(*)C3=O)cc21; CH2 = C([*:1])[*:2]

How the values were obtained:
HeLa cells [1] = experiment: Flow cytometry annexin V-FITC/PI apoptosis / viability assay; assay type: cell-based
Experimental: Induction of apoptosis in Hela cell lines by treatment with cyclic peptides was determined using annexin V-FITC/propidium iodide(PI) apoptosis detection kit (BD Biosciences) according to the manufacturer's protocol. 2×10^5 cells/well were treated with inhibitors for 24- and 48-hours in a dose dependent manner. Apoptotic cells were determined as annexin V-FITC positive and PI negative. DMSO and MG132 were used as negative and positive controls respectively. Samples were acquired on a Becton Dickinson LSR II flow cytometer (BD Biosciences) and analyzed using Flowjo software.

biotin-tetra-UbK48 = biological target: T1, biotin-tetra-UbK48 (Homo sapiens, UniProt P0CG47); experiment: Fluorescence-based competitive assay for peptide screening (relative binding vs Ub4_ix); conditions: 5 molar equiv unlabeled peptide, competition with Ub4_ix-FITC; fluorescence inversely proportional to affinity
T1 construct: a Ub polymer comprises Ub monomers linked to one another at lysine (Lys) residue at position 48 (K48); made in house; host or cells: total chemical synthesis (no expression host)
Experimental: Streptavidin-coated microplate (96 well plate) was washed (3×100 μl) with HEPES buffer. Then, 1 μg of biotin-tetra-UbK48 in 100 μl of HEPES buffer was incubated in each well for 30 minutes at room temperature (RT). Additional wells were kept free of biotin-tetra-UbK48 for subsequent blank subtraction. Following a washing step, unlabeled candidate peptides, including peptide-standard (Ub4_ix), were incubated in an excess amount (5 molar equiv. relative to biotin-tetra-UbK48) for 30 minutes at RT to saturate binding to the target. […] Finally, following washing, each well was treated with 100 μl of 6 M Gn·HCl at RT for 30 minutes to release the bound peptides. Then, the solution with the released peptides was transferred to Nunc black 96-well plate and fluorescence was measured (λ excitation=480 nm and λ emission=525 nm). The obtained values were then normalized, and compared with peptide standard, while the fluorescence signal was inversely proportional to the binding affinity of the peptide. The calculations of relative change in binding were performed according to the formula: Y=−[1−(a/b)]×100, where Y is the change in the signal relative to the standard Ub4_ix (in percentage); a is signal measured for each peptide variant (in relative fluorescence units); b is signal measured for Ub4_ix.
The inventors envisioned a screening strategy to proceed through four main steps, each terminated by washings with binding buffer. First, biotin tagged tetra-UbK48 was immobilized in a constant amount (1 μg per well) in streptavidin covered 96 well plate (FIG. 1(i and ii)). Then, unlabeled candidate peptides were incubated in excess in each well to saturate binding to the target. […] Finally, the bound peptides were released from wells by treatment with 6 M guanidine hydrochloride (Gn·HCl) solution followed by measuring the gained fluorescence (FIG. 1(i)). The obtained values were then compared to the fluorescence of the control well containing the unlabeled peptide to calculate relative binding. The gained fluorescence was inversely proportional to the binding affinity of the peptide candidate. […]

tetra-Ub K48 = biological target: T2, tetra-Ub K48 (Homo sapiens, UniProt P0CG47); experiment: Kd determination of FITC-labeled peptides on immobilized biotin-tetra-UbK48 (fluorescence binding curve); conditions: FITC-labeled peptide, tetra-Ub K48, one site non-cooperative binding model, triplicates; read-out: dissociation constant (Kd)
T2 construct: a Ub polymer comprises Ub monomers linked to one another at lysine (Lys) residue at position 48 (K48); made in house; host or cells: total chemical synthesis (no expression host)
Experimental: (1C) The bound peptides are released using Guanidinium-HCl (Gn·HCl) and the fluorescence intensity is measured. (1ii) A non-limiting schematic representation for measuring the dissociation constant (Kd) of FITC-labeled peptide with different concentrations. (1D) A FITC-labeled cyclic peptide with different concentrations are introduced in different wells for binding to the biotin-tetra Ub. (1E) Washing out the unbounded labeled cyclic peptide. (1F) The bound peptides are released using Gn·HCl and the fluorescence intensity is measured. […] All measurements were performed in triplicates.
To determine the dissociation constant (Kd) of labeled peptides, following immobilization step of biotin-tetra-UbK48, different concentrations of the labeled peptide were incubated. Then, the bound cyclic peptides were released with 6 M Gn·HCl, followed by fluorescence measurement (λex=480 nm and λem=525 nm). […]
First, biotin tagged tetra-UbK48 was immobilized in a constant amount (1 μg per well) in streptavidin covered 96 well plate (FIG. 1(i and ii)). […] Finally, the bound peptides were released from wells by treatment with 6 M guanidine hydrochloride (Gn·HCl) solution followed by measuring the gained fluorescence (FIG. 1(i)). The obtained values were then compared to the fluorescence of the control well containing the unlabeled peptide to calculate relative binding. […]

HeLa cells [2] = experiment: Peptide cell uptake, live-cell confocal microscopy; assay type: cell-based; conditions: 1 μM, 2 hours, confocal microscope, FITC signal
Experimental: HeLa cells (CCL-2™) were purchased from ATCC®. Dulbecco's modified Eagle's medium (DMEM), Eagle's minimum essential medium (EMEM), Fetal bovine serum (FBS), L-Glutamine, antibiotics (penicillin/streptomycin), trypsin/EDTA and phosphate-buffered saline (PBS) were purchased from biological industries. Hoechst 33342 solution (20 mM), SYTOX blue (5 mM) and Lysotracker probes were purchased from Thermo-fisher. μ-Slide 8 well ibiTreat for live-cell confocal microscopy was purchased from ibidi and polylysine hydrobromide was purchased from Sigma. Distribution of fluorescent peptides in live cells was analyzed using a confocal laser scanning microscope (Confocal Zeiss LSM 710) equipped with 40×NA 1.2 water immersion objective. During CLSM analysis the samples were kept at 37° C. in a humidified chamber.
The cells were washed with PBS buffer followed by addition of fresh phenol-free optical medium and live-cell imaging was carried out using a LSM 710 laser scanning confocal microscope equipped with an environmental control module.

24: methylene group stapled dimer of Ub4_ix_S7C, —S—CH2—S— bridge ({CH2CO}-WLYLDDCGDWWICG; thioether N-13 (inferred); also: dimer: Cys7 joined to Cys7 of second copy by -S-CH2-S- bridge) [compound 24]
early- and late stage apoptosis compared to Ub4_ix (HeLa cells [1]; HeLa cells, Annexin V/PI, 24 or 48 h): increased early- and late stage apoptosis | induction of cell death (HeLa cells [1]; Hela cells, 24- and 48-hours incubation): able to induce cell death | change in the relative fluorescence signal compared to Ub4_ix (improved binding) (biotin-tetra-UbK48): ~57%

peptide 23: disulfide bond containing dimeric cyclic peptide of Ub4_ix_S7C ({CH2CO}-WLYLDDCGDWWICG; thioether N-13 (inferred); also: dimer joined by disulfide bond, places not given here)
change in the relative fluorescence signal compared to Ub4_ix (improved binding) (biotin-tetra-UbK48): ~70%

CC[C@H](C)[C@@H]1NC(=O)[C@H](Cc2c[nH]c3ccccc23)NC(=O)[C@H](Cc2c[nH]c3ccccc23)NC(=O)[C@H](CC(=O)O)NC(=O)CNC(=O)[C@H](CSCSC[C@@H]2NC(=O)[C@H](CC(=O)O)NC(=O)[C@H](CC(=O)O)NC(=O)[C@H](CC(C)C)NC(=O)[C@H](Cc3ccc(O)cc3)NC(=O)[C@H](CC(C)C)NC(=O)[C@@H](Cc3c[nH]c4ccccc34)NC(=O)CSC[C@@H](C(=O)NCC(=O)N[C@@H](C)C(=O)N[C@@H](CSC3CC(=O)N(c4ccc5c(c4)C(=O)OC54c5ccc(O)cc5Oc5cc(O)ccc54)C3=O)C(N)=O)NC(=O)[C@H]([C@@H](C)CC)NC(=O)[C@H](Cc3c[nH]c4ccccc34)NC(=O)[C@H](Cc3c[nH]c4ccccc34)NC(=O)[C@H](CC(=O)O)NC(=O)CNC2=O)NC(=O)[C@H](CC(=O)O)NC(=O)[C@H](CC(=O)O)NC(=O)[C@H](CC(C)C)NC(=O)[C@H](Cc2ccc(O)cc2)NC(=O)[C@H](CC(C)C)NC(=O)[C@@H](Cc2c[nH]c3ccccc23)NC(=O)CSC[C@@H](C(=O)NCC(=O)N[C@@H](C)C(=O)N[C@@H](CSC2CC(=O)N(c3ccc4c(c3)C(=O)OC43c4ccc(O)cc4Oc4cc(O)ccc43)C2=O)C(N)=O)NC1=O (some centres unmarked) [peptide 30] (I: {CH2CO}-[dW]LYLDDCGDWWICGAC(Fluorescein(5-Mal))-NH2 / II: {CH2CO}-[dW]LYLDDCGDWWICGAC(Fluorescein(5-Mal))-NH2; linker I:7-II:7 via CH2; thioether I:N-I:13, II:N-II:13)
Kd (tetra-Ub K48): 0.0123 ± 0.00126 µM | cellular uptake / permeability and localization (HeLa cells [2]): permeability and cytosolic localization | cellular uptake / permeability and localization (HeLa cells [2]; listed as (Ub4_ix_S7C)2CH2-FITC): quickly and efficiently distributed within cells

Ub4_ix_S7A: Ub4_ix analogue from Alanine scan, position 7 Ala; likely WLYLDDAGDWWICG (SEQ ID NO: 5) ({CH2CO}-WLYLDDAGDWWICG; thioether N-13 (inferred))
change in the relative fluorescence signal compared to Ub4_ix (improved binding) (biotin-tetra-UbK48): ~13%
